# Laboratory results from PubChem BioAssay AID1259407 (Chemical Carcinogenesis Research Information System (CCRIS), 2018).
# Active and inactive are the calls of the source. No rule for the calls is given here.
# System: CCRIS mutagenicity, Ames/micronucleus/aberration tests
# Assay: CCRIS mutagenicity studies
# [1] = Test System: AMES SALMONELLA TYPHIMURIUM, Strain/Indicator: TA98, Metabolic Activation: RAT, LIVER, S-9, AROCLOR 1254, Method: STANDARD PLATE
# [2] = Test System: AMES SALMONELLA TYPHIMURIUM, Strain/Indicator: TA100, Metabolic Activation: RAT, LIVER, S-9, AROCLOR 1254, Method: STANDARD PLATE
# [3] = Test System: AMES SALMONELLA TYPHIMURIUM, Strain/Indicator: TA1535, Metabolic Activation: NONE, Method: STANDARD PLATE
# [4] = Test System: AMES SALMONELLA TYPHIMURIUM, Strain/Indicator: TA1535, Metabolic Activation: RAT, LIVER, S-9, AROCLOR 1254, Method: STANDARD PLATE
# [5] = Test System: AMES SALMONELLA TYPHIMURIUM, Strain/Indicator: TA1537, Metabolic Activation: NONE, Method: STANDARD PLATE
# [6] = Test System: AMES SALMONELLA TYPHIMURIUM, Strain/Indicator: TA98, Metabolic Activation: NONE, Method: STANDARD PLATE
# [7] = Test System: AMES SALMONELLA TYPHIMURIUM, Strain/Indicator: TA100, Metabolic Activation: NONE, Method: STANDARD PLATE
smiles,measurement,setting,value
NC(=O)NO,mutagenic call,"End Point: IN VITRO MICRONUCLEUS, Test System: CHINESE HAMSTER V79 CELLS, Metabolic Activation: NONE",active; positive; effect greater at 16 hr exposure
same,mutagenic call,"End Point: IN VITRO MICRONUCLEUS, Test System: CHO CELLS, Metabolic Activation: RAT, LIVER, S-9, AROCLOR 1254",active; positive
same,mutagenic call,"End Point: In vitro micronucleus, Test System: Human lymphoblastoid TK6 cells, Metabolic Activation: None",active; positive (p<0.001)
same,mutagenic call,"Test System: AMES SALMONELLA TYPHIMURIUM, Strain/Indicator: TA97, Metabolic Activation: NONE, Method: STANDARD PLATE",active; positive
same,mutagenic call,"Test System: AMES SALMONELLA TYPHIMURIUM, Strain/Indicator: TA97, Metabolic Activation: RAT, LIVER, S-9, AROCLOR 1254, Method: STANDARD PLATE",active; positive
same,mutagenic call,[1],active; positive
same,mutagenic call,[2],active; positive
same,mutagenic call,"Test System: AMES SALMONELLA TYPHIMURIUM, Strain/Indicator: TA102, Metabolic Activation: RAT, LIVER, S-9, AROCLOR 1254, Method: STANDARD PLATE",active; positive
same,mutagenic call,[3],inactive; negative
same,mutagenic call,[4],inactive; negative
same,mutagenic call,[5],inactive; negative
same,mutagenic call,"Test System: E. COLI, Strain/Indicator: WP2 (HCR), Metabolic Activation: NONE, Method: STANDARD PLATE",inactive; negative
same,mutagenic call,"Test System: MOUSE LYMPHOMA, Strain/Indicator: L5178Y (TK+/TK-), Metabolic Activation: NONE, Method: MICROWELL",active; positive
same,mutagenic call,"Test System: MOUSE LYMPHOMA, Strain/Indicator: L5178Y (TK+/TK-), Metabolic Activation: NONE, Method: SUSPENSION/PLATE",active; positive
same,mutagenic call,"Test System: MOUSE LYMPHOMA, Strain/Indicator: L5178Y (TK+/TK-), Metabolic Activation: S-9, Method: MICROWELL",active; positive
same,mutagenic call,"Test System: UDS RODENT HEPATOCYTES, Strain/Indicator: THY INCORP (NON-S-PHASE), Metabolic Activation: NONE, Method: AUTORADIOGRAPHY",active; positive
Nc1nc(-c2ccc([N+](=O)[O-])cc2)nc2nc[nH]c12,mutagenic call,"Test System: AMES SALMONELLA TYPHIMURIUM, Strain/Indicator: TA98(1,8-DNP), Metabolic Activation: NONE, Method: PREINCUBATION",active; positive
same,mutagenic call,"Test System: AMES SALMONELLA TYPHIMURIUM, Strain/Indicator: TA98(1,8-DNP), Metabolic Activation: RAT, LIVER, S-9, PCB, Method: PREINCUBATION",active; positive
same,mutagenic call,"Test System: AMES SALMONELLA TYPHIMURIUM, Strain/Indicator: TA98(NR), Metabolic Activation: NONE, Method: PREINCUBATION",active; positive
same,mutagenic call,"Test System: AMES SALMONELLA TYPHIMURIUM, Strain/Indicator: TA98(NR), Metabolic Activation: RAT, LIVER, S-9, PCB, Method: PREINCUBATION",active; positive
same,mutagenic call,"Test System: AMES SALMONELLA TYPHIMURIUM, Strain/Indicator: TA98, Metabolic Activation: NONE, Method: PREINCUBATION",active; positive
same,mutagenic call,"Test System: AMES SALMONELLA TYPHIMURIUM, Strain/Indicator: TA98, Metabolic Activation: RAT, LIVER, S-9, PCB, Method: PREINCUBATION",active; positive
same,mutagenic call,"Test System: AMES SALMONELLA TYPHIMURIUM, Strain/Indicator: TA100(1,8-DNP), Metabolic Activation: NONE, Method: PREINCUBATION",active; positive
same,mutagenic call,"Test System: AMES SALMONELLA TYPHIMURIUM, Strain/Indicator: TA100(1,8-DNP), Metabolic Activation: RAT, LIVER, S-9, PCB, Method: PREINCUBATION",active; positive
same,mutagenic call,"Test System: AMES SALMONELLA TYPHIMURIUM, Strain/Indicator: TA100(NR), Metabolic Activation: NONE, Method: PREINCUBATION",active; positive
same,mutagenic call,"Test System: AMES SALMONELLA TYPHIMURIUM, Strain/Indicator: TA100(NR), Metabolic Activation: RAT, LIVER, S-9, PCB, Method: PREINCUBATION",active; positive
same,mutagenic call,"Test System: AMES SALMONELLA TYPHIMURIUM, Strain/Indicator: TA100, Metabolic Activation: NONE, Method: PREINCUBATION",active; positive
same,mutagenic call,"Test System: AMES SALMONELLA TYPHIMURIUM, Strain/Indicator: TA100, Metabolic Activation: RAT, LIVER, S-9, PCB, Method: PREINCUBATION",active; positive
same,mutagenic call,"Test System: AMES SALMONELLA TYPHIMURIUM, Strain/Indicator: YG1020, Metabolic Activation: NONE, Method: PREINCUBATION",active; positive
same,mutagenic call,"Test System: AMES SALMONELLA TYPHIMURIUM, Strain/Indicator: YG1020, Metabolic Activation: RAT, LIVER, S-9, PCB, Method: PREINCUBATION",active; positive
same,mutagenic call,"Test System: AMES SALMONELLA TYPHIMURIUM, Strain/Indicator: YG1021, Metabolic Activation: NONE, Method: PREINCUBATION",active; positive
same,mutagenic call,"Test System: AMES SALMONELLA TYPHIMURIUM, Strain/Indicator: YG1021, Metabolic Activation: RAT, LIVER, S-9, PCB, Method: PREINCUBATION",active; positive
same,mutagenic call,"Test System: AMES SALMONELLA TYPHIMURIUM, Strain/Indicator: YG1024, Metabolic Activation: NONE, Method: PREINCUBATION",active; positive
same,mutagenic call,"Test System: AMES SALMONELLA TYPHIMURIUM, Strain/Indicator: YG1024, Metabolic Activation: RAT, LIVER, S-9, PCB, Method: PREINCUBATION",active; positive
same,mutagenic call,"Test System: AMES SALMONELLA TYPHIMURIUM, Strain/Indicator: YG1025, Metabolic Activation: NONE, Method: PREINCUBATION",active; positive
same,mutagenic call,"Test System: AMES SALMONELLA TYPHIMURIUM, Strain/Indicator: YG1025, Metabolic Activation: RAT, LIVER, S-9, PCB, Method: PREINCUBATION",active; positive
same,mutagenic call,"Test System: AMES SALMONELLA TYPHIMURIUM, Strain/Indicator: YG1026, Metabolic Activation: NONE, Method: PREINCUBATION",active; positive
same,mutagenic call,"Test System: AMES SALMONELLA TYPHIMURIUM, Strain/Indicator: YG1026, Metabolic Activation: RAT, LIVER, S-9, PCB, Method: PREINCUBATION",active; positive
same,mutagenic call,"Test System: AMES SALMONELLA TYPHIMURIUM, Strain/Indicator: YG1029, Metabolic Activation: NONE, Method: PREINCUBATION",active; positive
same,mutagenic call,"Test System: AMES SALMONELLA TYPHIMURIUM, Strain/Indicator: YG1029, Metabolic Activation: RAT, LIVER, S-9, PCB, Method: PREINCUBATION",active; positive
CC(C)CC(=O)OCc1cocc2c(C=O)ccc1-2,mutagenic call,[6],active; positive
same,mutagenic call,[1],active; positive
same,mutagenic call,[7],active; positive
same,mutagenic call,[2],active; positive
same,mutagenic call,[3],inactive; negative
same,mutagenic call,[4],inactive; negative
same,mutagenic call,[5],inactive; negative
same,mutagenic call,"Test System: AMES SALMONELLA TYPHIMURIUM, Strain/Indicator: TA1537, Metabolic Activation: RAT, LIVER, S-9, AROCLOR 1254, Method: STANDARD PLATE",inactive; negative
O=[N+]([O-])c1ccc2ccc3ccc([N+](=O)[O-])cc3c2c1,mutagenic call,"Test System: AMES SALMONELLA TYPHIMURIUM, Strain/Indicator: TA98(1,8-DNP6), Metabolic Activation: NONE, Method: STANDARD PLATE",active; positive
same,mutagenic call,"Test System: AMES SALMONELLA TYPHIMURIUM, Strain/Indicator: TA98(NR), Metabolic Activation: NONE, Method: STANDARD PLATE",active; positive
same,mutagenic call,[6],active; positive
same,mutagenic call,[7],active; positive
same,mutagenic call,"Test System: AMES SALMONELLA TYPHIMURIUM, Strain/Indicator: YG1021, Metabolic Activation: NONE, Method: STANDARD PLATE",active; positive
same,mutagenic call,"Test System: AMES SALMONELLA TYPHIMURIUM, Strain/Indicator: YG1024, Metabolic Activation: NONE, Method: STANDARD PLATE",active; positive
same,mutagenic call,"Test System: AMES SALMONELLA TYPHIMURIUM, Strain/Indicator: YG1026, Metabolic Activation: NONE, Method: STANDARD PLATE",active; positive
same,mutagenic call,"Test System: AMES SALMONELLA TYPHIMURIUM, Strain/Indicator: YG1029, Metabolic Activation: NONE, Method: STANDARD PLATE",active; positive
